Reference: patent US20250041279A1, “THERAPEUTIC MEDICINE FOR HEART DISEASE OR SKELETAL MUSCLE DISEASE” (SHIONOGI & CO., LTD., priority 2021, published 2025)

How the values were obtained:
recombinant human ACC2 = recombinant human ACC2 (Homo sapiens (Human), UniProt O00763); test: Measurement of inhibitory activity of human ACC2 (MALDI-TOF MS); assay type: biochemical; settings: read-out: IC50 hACC2
From the text: A cDNA encoding human ACC2 protein (27 amino acid residues to 2458 amino acid residues from the N-terminus) was cloned from a human kidney cDNA library (Clontech Laboratories, Inc.), a His-tag sequence was introduced at the 5′ end, and then inserted into pFastBac1 (Invitrogen). A recombinant baculovirus was produced in accordance with the protocol for a Bac-to-Bac baculovirus expression system (Invitrogen), and Sf-9 cells were infected therewith to express human ACC2 protein. The recovered cells were crushed, filtered through a filter, and then subjected to Ni affinity chromatography and anion exchange chromatography. Fractions containing human ACC2 protein were collected to obtain recombinant human ACC2.
The recombinant human ACC1 and the recombinant human ACC2 obtained from the above Preparation Examples were preincubated in an assay buffer (50 mM HEPES-KOH (pH 7.4), 10 mM magnesium chloride, 6 to 10 mM potassium citrate, 4 mM glutathione reduced form, and 1.5 mg/ml bovine serum albumin) for 1 hour. […] Deprotonated ions of the substrate acetyl-CoA (AcCoA) and the reaction product malonyl-CoA (MalCoA) were detected, and the intensity of each signal was used to calculate a conversion rate to malonyl-CoA or succinyl-CoA, i.e., intensity of [MalCoA-H]—/(intensity of [MalCoA-H]-+intensity of [AcCoA.H].). […] The potassium citrate concentration in the assay buffer, the potassium bicarbonate concentration in the substrate solution, and the incubation time were adjusted within the above concentrations or reaction times for each lot of the enzyme to be used.

recombinant human ACC1 = recombinant human ACC1 (Homo sapiens (Human), UniProt Q13085); test: Measurement of inhibitory activity of human ACC1 (MALDI-TOF MS); assay type: biochemical; settings: read-out: IC50 hACC1
From the text: A cDNA encoding human ACC1 protein (1 amino acid residue to 2346 amino acid residues from the N-terminus) was cloned from a human liver cDNA library (BioChain Institute Inc.), myc tag and His-tag sequences were introduced at the 3′ end, and then inserted into pIEXBAC3 (Novagen). A recombinant baculovirus was produced in accordance with the protocol for Flash BACGOLD (Oxford Expression Technologies Ltd.), and Sf-9 cells were infected therewith to express human ACC1 protein. The recovered cells were crushed, filtered through a filter, and then subjected to Ni affinity chromatography and anion exchange chromatography. Fractions containing human ACC1 protein were collected to obtain recombinant human ACC1.
The recombinant human ACC1 and the recombinant human ACC2 obtained from the above Preparation Examples were preincubated in an assay buffer (50 mM HEPES-KOH (pH 7.4), 10 mM magnesium chloride, 6 to 10 mM potassium citrate, 4 mM glutathione reduced form, and 1.5 mg/ml bovine serum albumin) for 1 hour. Then, 5 μL of the pre-incubated enzyme solution and 5 μL of a substrate solution (50 mM HEPES-KOH (pH 7.4), 1 mM ATP, 0.8 mM acetyl-CoA, and 25 to 50 mM potassium bicarbonate) were added to a 384-well microplate into which 0.2 μl of each of solutions of the compound of the present invention (DMSO had been dispensed, and the mixture was centrifuged and shaken, and then incubated in a wet box at room temperature for 1 to 3 hours. After incubation, the enzymatic reaction was stopped by addition of EDTA, and then the sample was co-crystallized with an α-cyano-4-hydroxy cinnamic acid (CHCA) matrix on a MALDI target plate, and measurement was performed in a reflector negative mode using a matrix-assisted laser desorption ionization-time-of-flight mass spectrometer (MALDI-TOF MS). Deprotonated ions of the substrate acetyl-CoA (AcCoA) and the reaction product malonyl-CoA (MalCoA) were detected, and the intensity of each signal was used to calculate a conversion rate to malonyl-CoA or succinyl-CoA, i.e., intensity of [MalCoA-H]—/(intensity of [MalCoA-H]-+intensity of [AcCoA.H].). […] The potassium citrate concentration in the assay buffer, the potassium bicarbonate concentration in the substrate solution, and the incubation time were adjusted within the above concentrations or reaction times for each lot of the enzyme to be used.

C57BL/6JJcl mice = test: Plasma triglyceride concentration in mice fed ultra-high fat, choline-deficient, methionine-lowered diet; assay type: in vivo; settings: for Plasma triglyceride concentration: bid, mean ± standard error; for plasma triglyceride concentration versus vehicle-administered group: mice fed ultra-high fat, choline-deficient, methionine-lowered diet, repeated oral b.i.d.
Method: Six-week-old male C57BL/6JJcl mice were fed an ultra-high fat, choline-deficient, methionine-lowered diet (60 kcal % fat content, using lard, choline-deficient, methionine-lowered (0.1%)), and at the same time, the compound of the present invention was suspended in a vehicle (0.5% methylcellulose aqueous solution) so as to have a dose of 3 to 45 mg/kg/10 mL, and orally repeatedly administered (b.i.d.) for 8 weeks. Blood was collected from the tail vein during the repeated administration period, and biochemical parameters in plasma were measured.

Atgl knockout mice = test: Long-chain fatty acid metabolizing ability in Atgl knockout mouse myocardium (BMIPP SPECT/CT wash out rate); assay type: in vivo
Method: Atgl (adipose-triglyceride lipase) knockout mice are known as non clinical models of TGCV. Atgl knockout mice (KO mice) deficient in the Atgl gene were each produced by a known method.
The compound of the present invention was suspended in a 0.5% HPMC aqueous solution so that the dose of the same was 30 or 45 mg/kg/10 mL, and orally administered to 6 to 7-week-old male Atgl knockout mice on the day before and the day when the long chain fatty acid metabolizing ability was measured. On the day of measurement of long-chain fatty acid metabolizing ability, 14.6 MBq/mouse of iodine-123-8 methyl iodophenyl-pen-tadecanoic acid (BMIPP) was administered via the tail vein. At 1 hour and 4 hours after administration, the mice were imaged by single-photon emission computed tomography (SPECT)/CT under anesthesia, and the radioactivity of the administered BMIPP in the myocardium was measured. The metabolism of long-chain fatty acids in the myocardium was calculated as a wash out rate by the following formula.

[1] = Metabolic stability test, rat; assay type: in vitro ADME; settings: 30 minutes
Crl:CD (SD) rats = test: Influence on platelet count in SD rats; assay type: in vivo; settings: for Platelet count: mean ± standard deviation; for effect on platelet count: within the dose range used for evaluation
Method: The compound of the present invention was suspended in a 0.5% methylcellulose solution so as to have a dose of 50 to 600 mg/kg/day, and was orally repeatedly administered for 4 days to 6-week-old male Crl:CD (SD) rats under non-fasted conditions. On day 5 from the start of administration, blood was collected from the abdominal vena cava under anesthesia, and […]. A platelet count in plasma was evaluated with an automatic hemocytometer.

Chain of recombinant human ACC2 (O00763 27-2458): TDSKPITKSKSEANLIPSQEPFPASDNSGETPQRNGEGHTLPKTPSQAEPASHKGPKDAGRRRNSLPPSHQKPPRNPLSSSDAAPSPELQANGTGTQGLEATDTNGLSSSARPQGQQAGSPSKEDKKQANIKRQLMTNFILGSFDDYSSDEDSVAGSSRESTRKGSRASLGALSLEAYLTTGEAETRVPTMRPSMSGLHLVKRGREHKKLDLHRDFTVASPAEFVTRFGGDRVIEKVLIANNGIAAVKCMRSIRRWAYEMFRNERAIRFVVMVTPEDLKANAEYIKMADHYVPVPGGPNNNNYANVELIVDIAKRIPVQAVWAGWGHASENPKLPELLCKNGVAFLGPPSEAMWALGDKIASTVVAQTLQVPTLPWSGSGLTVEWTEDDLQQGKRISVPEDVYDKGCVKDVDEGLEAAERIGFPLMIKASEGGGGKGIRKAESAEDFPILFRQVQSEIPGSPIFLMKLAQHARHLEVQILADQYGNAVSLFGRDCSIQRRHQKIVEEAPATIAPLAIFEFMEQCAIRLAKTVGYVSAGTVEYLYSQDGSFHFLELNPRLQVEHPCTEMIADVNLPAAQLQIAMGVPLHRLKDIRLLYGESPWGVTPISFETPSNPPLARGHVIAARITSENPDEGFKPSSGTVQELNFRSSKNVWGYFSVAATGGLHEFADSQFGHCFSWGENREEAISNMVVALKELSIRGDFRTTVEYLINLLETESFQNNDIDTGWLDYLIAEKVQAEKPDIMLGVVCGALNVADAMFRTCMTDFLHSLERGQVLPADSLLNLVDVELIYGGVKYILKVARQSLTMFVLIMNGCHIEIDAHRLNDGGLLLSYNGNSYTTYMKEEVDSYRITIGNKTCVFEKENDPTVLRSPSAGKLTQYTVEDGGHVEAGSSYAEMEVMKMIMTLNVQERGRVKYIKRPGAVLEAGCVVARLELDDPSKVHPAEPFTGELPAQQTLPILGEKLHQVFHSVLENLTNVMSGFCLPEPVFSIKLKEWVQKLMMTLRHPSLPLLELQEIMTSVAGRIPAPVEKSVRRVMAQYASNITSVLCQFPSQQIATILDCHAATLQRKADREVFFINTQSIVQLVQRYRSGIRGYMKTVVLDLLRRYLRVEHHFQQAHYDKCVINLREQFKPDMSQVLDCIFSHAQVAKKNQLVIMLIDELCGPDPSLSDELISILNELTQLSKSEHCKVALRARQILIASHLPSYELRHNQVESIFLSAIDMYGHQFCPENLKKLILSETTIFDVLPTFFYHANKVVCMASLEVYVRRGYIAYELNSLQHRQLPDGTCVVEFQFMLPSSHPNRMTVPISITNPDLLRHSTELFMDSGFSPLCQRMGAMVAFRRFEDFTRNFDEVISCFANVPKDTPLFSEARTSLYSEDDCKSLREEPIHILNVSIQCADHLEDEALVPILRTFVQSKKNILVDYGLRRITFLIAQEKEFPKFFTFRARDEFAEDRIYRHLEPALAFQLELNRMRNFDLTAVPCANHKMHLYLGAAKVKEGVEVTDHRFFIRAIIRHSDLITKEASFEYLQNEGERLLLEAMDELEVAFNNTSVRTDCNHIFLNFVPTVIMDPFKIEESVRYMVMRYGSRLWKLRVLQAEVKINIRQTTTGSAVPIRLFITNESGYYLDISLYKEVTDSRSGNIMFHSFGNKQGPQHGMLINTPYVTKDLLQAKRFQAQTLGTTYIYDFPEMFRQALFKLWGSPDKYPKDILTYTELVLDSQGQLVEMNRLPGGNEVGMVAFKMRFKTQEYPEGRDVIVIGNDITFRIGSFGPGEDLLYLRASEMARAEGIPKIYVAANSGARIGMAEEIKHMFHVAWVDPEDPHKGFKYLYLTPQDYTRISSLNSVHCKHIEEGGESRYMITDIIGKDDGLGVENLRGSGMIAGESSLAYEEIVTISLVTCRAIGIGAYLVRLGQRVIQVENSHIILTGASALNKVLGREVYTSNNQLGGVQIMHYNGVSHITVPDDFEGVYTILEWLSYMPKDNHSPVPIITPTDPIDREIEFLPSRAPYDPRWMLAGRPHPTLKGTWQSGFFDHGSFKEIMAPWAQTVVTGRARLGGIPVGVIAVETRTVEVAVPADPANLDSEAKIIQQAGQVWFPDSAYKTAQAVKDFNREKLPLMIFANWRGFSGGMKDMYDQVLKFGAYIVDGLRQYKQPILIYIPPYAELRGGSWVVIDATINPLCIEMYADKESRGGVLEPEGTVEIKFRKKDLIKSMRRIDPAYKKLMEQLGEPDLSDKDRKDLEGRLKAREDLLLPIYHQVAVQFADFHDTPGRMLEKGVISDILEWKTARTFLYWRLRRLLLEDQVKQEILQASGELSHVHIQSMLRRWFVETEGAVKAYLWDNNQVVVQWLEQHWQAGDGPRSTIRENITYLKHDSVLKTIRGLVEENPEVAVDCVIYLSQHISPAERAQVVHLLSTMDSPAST

`C[C@@H](COC1CCC(Oc2nc3c(F)cc(OC4CC4)cc3n2C)CC1)NC(N)=O` (stereo partly shown) [Compound I-12] gave an IC50 (recombinant human ACC2) of 0.0056 µM, an IC50 (recombinant human ACC1) of 6.9 µM and a Plasma triglyceride concentration (C57BL/6JJcl mice; 3 mg/kg, 2 weeks) of 32.9 ± 1.3 mg/dL. It also gave a Plasma triglyceride concentration (C57BL/6JJcl mice; 3 mg/kg, 4 weeks) of 22.4 ± 2.1 mg/dL, a Plasma triglyceride concentration (C57BL/6JJcl mice; 3 mg/kg, 7 weeks) of 27.2 ± 1.5 mg/dL and a Plasma triglyceride concentration (C57BL/6JJcl mice; 10 mg/kg, 2 weeks) of 30.4 ± 2.2 mg/dL. It also gave a Plasma triglyceride concentration (C57BL/6JJcl mice; 10 mg/kg, 4 weeks) of 21.5 ± 1.8 mg/dL, a Plasma triglyceride concentration (C57BL/6JJcl mice; 10 mg/kg, 7 weeks) of 22.1 ± 1.9 mg/dL and a Plasma triglyceride concentration (C57BL/6JJcl mice; 30 mg/kg, 2 weeks) of 23.1 ± 2.5 mg/dL. The Plasma triglyceride concentration (C57BL/6JJcl mice; 30 mg/kg, 4 weeks) was 11.1 ± 1.1 mg/dL, the Plasma triglyceride concentration (C57BL/6JJcl mice; 30 mg/kg, 7 weeks) was 16.2 ± 1.6 mg/dL and the “plasma triglyceride concentration versus vehicle-administered group” value (C57BL/6JJcl mice) was “lower than that in the vehicle-administered group”. The “long chain fatty acid metabolizing ability in myocardium (wash out rate)” value (Atgl knockout mice; 30 mg/kg/10 mL oral, p=0.096, Welch's t test) was “tended to improve”, the “Remaining amount of compound, Rat” value [1] was 85.5% and the Platelet count (Crl:CD (SD) rats; 100 mg/kg/day oral for 4 days) was 987 ± 86. The Platelet count (Crl:CD (SD) rats; 300 mg/kg/day oral for 4 days) was 988 ± 43, the Platelet count (Crl:CD (SD) rats; 600 mg/kg/day oral for 4 days) was 1061 ± 85 and the “effect on platelet count” value (Crl:CD (SD) rats) was “did not affect”.

With `CC(=O)N[C@@H](C)CCC1OCC(Oc2nc3c(F)c(OC4CC4)ccc3n2C)CO1` (stereo partly shown) [Compound I-13] the IC50 (recombinant human ACC2) was 0.0066 µM, the IC50 (recombinant human ACC1) was 0.91 µM and the Plasma triglyceride concentration (C57BL/6JJcl mice; 15 mg/kg, 0 weeks) was 61.6 ± 3.1 mg/dL. It also gave a Plasma triglyceride concentration (C57BL/6JJcl mice; 15 mg/kg, 1 week) of 23.7 ± 1.0 mg/dL, a Plasma triglyceride concentration (C57BL/6JJcl mice; 15 mg/kg, 3 weeks) of 19.8 ± 1.2 mg/dL and a Plasma triglyceride concentration (C57BL/6JJcl mice; 15 mg/kg, 5 weeks) of 19.0 ± 1.7 mg/dL. It also gave a Plasma triglyceride concentration (C57BL/6JJcl mice; 15 mg/kg, 7 weeks) of 18.8 ± 1.2 mg/dL, a Plasma triglyceride concentration (C57BL/6JJcl mice; 45 mg/kg, 0 weeks) of 63.6 ± 3.7 mg/dL and a Plasma triglyceride concentration (C57BL/6JJcl mice; 45 mg/kg, 1 week) of 22.4 ± 2.5 mg/dL. For the same compound, the Plasma triglyceride concentration (C57BL/6JJcl mice; 45 mg/kg, 3 weeks) was 18.9 ± 1.4 mg/dL, the Plasma triglyceride concentration (C57BL/6JJcl mice; 45 mg/kg, 5 weeks) was 16.5 ± 1.7 mg/dL and the Plasma triglyceride concentration (C57BL/6JJcl mice; 45 mg/kg, 7 weeks) was 15.1 ± 1.0 mg/dL. For the same compound, the “plasma triglyceride concentration versus vehicle-administered group” value (C57BL/6JJcl mice) was “lower than that in the vehicle-administered group”, the “long-chain fatty acid metabolizing ability in myocardium (wash out rate)” value (Atgl knockout mice; 45 mg/kg/10 mL oral, p<0.05, Welch's t test) was “significant improving effect” and the “Remaining amount of compound, Rat” value [1] was 87%. The Platelet count (Crl:CD (SD) rats; 50 mg/kg/day oral for 4 days) was 1079 ± 73, the Platelet count (Crl:CD (SD) rats; 100 mg/kg/day oral for 4 days) was 1048 ± 65 and the Platelet count (Crl:CD (SD) rats; 200 mg/kg/day oral for 4 days) was 1122 ± 87. For the same compound, the “effect on platelet count” value (Crl:CD (SD) rats) was “did not affect”.
